One data set deals with T1, human CCR5 (Homo sapiens, UniProt P51681).
T1 construct: expressed in transfected cells; plasmid pCKR5 = pcDNA3.1 with about 1.0 kb CCR5 insert
Kind of data set: [125I]-RANTES binding inhibition on CHO/CCR5 cells. The settings on record: Test Compound 1 μM, 100 pM [125I]-RANTES. How it is done:
CHO-K1 cells were grown in 750 ml of tissue culture flask (Becton Dickinson) using Ham's F12 medium (Nihon Pharmaceutical) containing 10% fetal calf serum (Life Tech Oriental) and took off with 0.5 g/L trypsin-0.2 g/L EDTA (Life Tech Oriental). The cells were washed with PBS (Life Tech Oriental), centrifuged (1000 rpm, 5 minutes), and suspended in PBS. With using Gene Pulser (Bio-Rad Laboratories), DNA was introduced into the cells under the conditions shown below. That is, to the cuvette of 0.4 cm gap were added 8×10^6 cells and 10 μg of plasmid pCKR5 for expression of human CCR5, and electroporation was carried out under 0.25 kV of voltage and 960 μF. of capacitance. The cells where transferred into Ham's F12 medium (Nihon Pharmaceutical) containing 10% fetal calf serum, and cultivated for 24 hours. The cells were again took off and centrifuged, and suspended in Ham's F12 medium (Nihon Pharmaceutical) containing 10% fetal calf serum and 500 μg/ml of geneticin (Life Tech Oriental). […] Radioactivity was determined with γ-counter to select CHO/CCR5 cells which specifically bind to the ligand.
The CHO/CCR5 were inoculated on 96 well microplate (5×10^4 cells/well) and cultivated for 24 hours. […] Radio-activity was determined with TopCount Micro Scintillation Counter (Packard Instrument, Inc.). […]

Data set [1] deals with HIV-1 BA-L. Kind of data set: Inhibitory effect on HIV-1 infection to MAGI-CCR5 cell. Format: cell-based. The conditions noted are these: Human immunodeficiency virus 1, BAL, 48 h; 0.064 μM Test Compound medium; MAGI-CCR5 cells; 300 PFU HIV-1 BA-L; 2 days; blue cell count. How it is done:
The plasmid where β-galactosidase gene was ligated downstream of HIV-1 LTR was introduced into CD4 positive HeLa cell, to which human CCR5 was further introduced to obtain transformant MAGI-CCR5. By using said transformant MAGI-CCR^5, degree of HIV-1 infection was calculated from β-galactosidase activity (blue color due to decomposition of 5-bromo-4-chloro-3-indolyl-β-D-galactopyranoside). Specifically, MAGI-CCR5 cells were suspended in DMEM medium containing 10% serum to prepare 5×10^4 cells/ml suspension. To each well of 96 well plate was inoculated 200 μl of the suspension, and the cells were cultivated at 37° C. overnight. The medium was removed by means of suction, and to the residue was added 100 μl of the above medium containing 0.064 μM of Test Compound and 100 μl of the above medium containing 300 PFU of HIV-1 BA-L cells. The cells were cultivated at 37° C. for 2 days. The medium was removed by means of suction. To the residue was added 200 μl of cell fixative (PBS containing 1% formaldehyde and 0.2% glutaraldehyde), and the mixture was allowed to stand at room temperature for 5 minutes and washed twice with PBS. […] The number of blue cells was counted by microscope and defined as the number of cells infected with HIV-1.

In data set [2] the test system is HIV-1 BA-L. Kind of data set: Inhibitory effect on HIV-1 infection to human PBMC (p24 antigen ELISA). Format: cell-based. The conditions noted are these: Human immunodeficiency virus 1, BAL, 0.032 μM Test Compound solution, p24 antigen in supernatant. How it is done: From normal person human peripheral blood mononuclear cells (PBMC) were separated, and the cells were stimulated with 10 μg/ml of PHA (Phytohemaglutinin) and 20 U/ml of interleukin-2 (IL-2) for 3 days. The cells were suspended in RPMI-1640 medium containing 20% serum to prepare 1×10 ^6/ml suspension. To the suspension were infected HIV-1 BA-L cells (20 ng as an amount of p24 antigen), and viruses were absorbed at 37° C. for 2 hours. The cells were washed and suspended in RPMI-1640 medium containing 20% serum and IL-2 20 U/ml to prepare 1×10^5/ml suspension. To the PBMC suspension was added the same amount of a solution which contains 0.032 μM of Test Compound, and the cells were cultivated at 37° C. in carbon dioxide gas incubator. The amount of p24 antigen in supernatant of the cultivated medium was determined by enzyme-linked immunosorbent assay (ELISA) and defined as degree of HIV-1 infection.
In general terms: An ELISA detects its analyte on a solid surface through an enzyme-linked reagent.

What is called melting point is the temperature, or range, at which the solid turns liquid. In general, inhibition refers to the relative decrease from the control value, in per cent. The low end stands for a weak effect, the high end for a strong effect.

Structures can show the parent of a compound that is named as a salt.

T1 sequence (P51681 whole entry): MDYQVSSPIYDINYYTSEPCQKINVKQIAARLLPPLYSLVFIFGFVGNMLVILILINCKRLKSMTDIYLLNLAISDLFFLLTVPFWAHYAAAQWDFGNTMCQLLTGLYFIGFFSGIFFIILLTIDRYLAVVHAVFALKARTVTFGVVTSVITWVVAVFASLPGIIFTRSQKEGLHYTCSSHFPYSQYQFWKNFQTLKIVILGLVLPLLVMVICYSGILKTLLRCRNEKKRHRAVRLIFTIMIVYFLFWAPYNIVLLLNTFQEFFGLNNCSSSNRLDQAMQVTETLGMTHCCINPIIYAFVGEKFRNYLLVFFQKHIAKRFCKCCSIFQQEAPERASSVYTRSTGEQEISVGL

As to `Cc1ccc(-c2ccc3c(c2)C=C(C(=O)Nc2ccc(C[N+](C)(C)C4CCC(=O)CC4)cc2)CCO3)cc1.[Cl-]` [Compound 2], at human CCR5, the “Inhibition Rate (%) to CCR5 binding” value was 96%. The compound `CCOc1ccc(-c2ccc3c(c2)C=C(C(=O)Nc2ccc(C[N+](C)(C)C4CCOCC4)cc2)CCO3)cc1` (as salt: chloride) [Compound 3, N-(4-(((7-(4-ethoxyphenyl)-2,3-dihydro-1-benzoxepin-4-yl)carbonyl)amino)benzyl)-N,N-dimethyl-N-(4-tetrahydropyranyl)ammonium chloride] came in with a melting point of 200 to 204 °C. The compound `Cc1ccc(-c2ccc3c(c2)C=C(C(=O)Nc2ccc(C[N+](C)(C)C4CCOCC4)cc2)CCC3)cc1` [Compound 1, N,N-dimethyl-N-(4-(((2-(4-methylphenyl)-6,7-dihydro-5H-benzocyclohepten-8-yl)carbonyl)amino)benzyl)-N-(4-tetrahydropyranyl)ammonium chloride] displayed an inhibition at 0.064 µM in the data set with HIV-1 BA-L [1] of 100%. The compound further returned an inhibition at 0.032 µM in the data set with HIV-1 BA-L [2] of 74%.

The values are drawn from patent US6376536B1, “Quaternary ammonium salts and their use” (Takeda Chemical Industries, Ltd., priority 1998, dated 2002).
